Data reported in ChEMBL document CHEMBL3885881, “DrugMatrix”.

Species on record: Rattus norvegicus
Assay: DrugMatrix - Regimen: Daily Repeat
Assay type: toxicity, organism-based, Sprague-Dawley
Design: regimen Daily Repeat, gender Male, age 6-8 weeks
Details: in vivo, sc, route subcutaneous, […]; for SODIUM / TOTAL BILIRUBIN / TOTAL PROTEIN / URIC ACID / ALANINE AMINOTRANSFERASE / ALBUMIN / ALKALINE PHOSPHATASE / ASPARTATE AMINOTRANSFERASE / BLOOD UREA NITROGEN / CARBON DIOXIDE / CHLORIDE / CHOLESTEROL / CREATINE PHOSPHOKINASE / CREATININE / GLUCOSE / LACTATE DEHYDROGENASE / LIPASE / PHOSPHORUS / POTASSIUM: tissue Plasma; for ABSOLUTE BASOPHIL / ABSOLUTE EOSINOPHIL / ABSOLUTE LYMPHOCYTE / ABSOLUTE MONOCYTE / ABSOLUTE SEGMENTED NEUTROPHIL / BASOPHIL / EOSINOPHIL / ERYTHROCYTE COUNT / HEMATOCRIT / HEMOGLOBIN / LEUKOCYTE COUNT / LYMPHOCYTE / MEAN CORPUSCULAR HEMOGLOBIN / MEAN CORPUSCULAR HEMOGLOBIN CONCENTRATION / MEAN CORPUSCULAR VOLUME / MONOCYTE / NEUTROPHIL / NUCLEATED RED BLOOD CELLS / PLATELET COUNT: tissue Blood
[1] = 2 mg/kg, 120 h, dose level M2, time 5 day
[2] = 25 mg/kg, 72 h, dose level High, time 3 day
[3] = 25 mg/kg, 120 h, dose level High, time 5 day
[4] = 72 h, dose 0.25 mg/Kg, dose level M1, time 3 day
[5] = 120 h, dose 0.25 mg/Kg, dose level M1, time 5 day

C[C@]12CC[C@@H]3c4ccc(OC(=O)c5ccccc5)cc4CC[C@H]3[C@@H]1CC[C@@H]2O [ESTRADIOL BENZOATE]
SODIUM [1]: 141.87 MEQ/L | TOTAL BILIRUBIN [1]: 0.13 mg/dL | TOTAL PROTEIN [1]: 5.93 G/DL | URIC ACID [1]: 2.07 mg/dL | ABSOLUTE BASOPHIL [2]: 0 CELLS/uL | ABSOLUTE EOSINOPHIL [2]: 0 CELLS/uL | ABSOLUTE LYMPHOCYTE [2]: 7876 CELLS/uL | ABSOLUTE MONOCYTE [2]: 263 CELLS/uL | ABSOLUTE SEGMENTED NEUTROPHIL [2]: 1061 CELLS/uL | BASOPHIL [2]: 0% | EOSINOPHIL [2]: 0% | ERYTHROCYTE COUNT [2]: 5.97 x10E6/uL | HEMATOCRIT [2]: 37% | HEMOGLOBIN [2]: 13.8 G/DL | LEUKOCYTE COUNT [2]: 9.2 x10E3/uL | LYMPHOCYTE [2]: 86% | MEAN CORPUSCULAR HEMOGLOBIN [2]: 23.2 pg | MEAN CORPUSCULAR HEMOGLOBIN CONCENTRATION [2]: 37.33 G/DL | MEAN CORPUSCULAR VOLUME [2]: 62.1 fL | MONOCYTE [2]: 2.67% | NEUTROPHIL [2]: 11.33% | NUCLEATED RED BLOOD CELLS [2]: 0 /100WBC | PLATELET COUNT [2]: 1341 x10E3/uL | ALANINE AMINOTRANSFERASE [2]: 32.33 u/L | ALBUMIN [2]: 4.13 G/DL | ALKALINE PHOSPHATASE [2]: 479.33 u/L | ASPARTATE AMINOTRANSFERASE [2]: 66.67 u/L | BLOOD UREA NITROGEN [2]: 10.33 mg/dL | CARBON DIOXIDE [2]: 29 mmol/L | CHLORIDE [2]: 101.33 MEQ/L | CHOLESTEROL [2]: 26.67 mg/dL | CREATINE PHOSPHOKINASE [2]: 407.67 u/L | CREATININE [2]: 0.16 mg/dL | GLUCOSE [2]: 188.67 mg/dL | LACTATE DEHYDROGENASE [2]: 154.67 u/L | LIPASE [2]: 7.33 u/L | PHOSPHORUS [2]: 11.1 mg/dL | POTASSIUM [2]: 5.86 MEQ/L | SODIUM [2]: 141.4 MEQ/L | TOTAL BILIRUBIN [2]: 0.1 mg/dL | TOTAL PROTEIN [2]: 5.73 G/DL | URIC ACID [2]: 2 mg/dL | ABSOLUTE BASOPHIL [3]: 0 CELLS/uL | ABSOLUTE EOSINOPHIL [3]: 23.33 CELLS/uL | ABSOLUTE LYMPHOCYTE [3]: 7006.67 CELLS/uL | ABSOLUTE MONOCYTE [3]: 182 CELLS/uL | ABSOLUTE SEGMENTED NEUTROPHIL [3]: 921.33 CELLS/uL | BASOPHIL [3]: 0% | EOSINOPHIL [3]: 0.33% | ERYTHROCYTE COUNT [3]: 5.89 x10E6/uL | HEMATOCRIT [3]: 35% | HEMOGLOBIN [3]: 13.6 G/DL | LEUKOCYTE COUNT [3]: 8.13 x10E3/uL | LYMPHOCYTE [3]: 86.33% | MEAN CORPUSCULAR HEMOGLOBIN [3]: 23.13 pg | MEAN CORPUSCULAR HEMOGLOBIN CONCENTRATION [3]: 38.9 G/DL | MEAN CORPUSCULAR VOLUME [3]: 59.43 fL | MONOCYTE [3]: 2.67% | NEUTROPHIL [3]: 10.67% | NUCLEATED RED BLOOD CELLS [3]: 0 /100WBC | PLATELET COUNT [3]: 988.67 x10E3/uL | ALANINE AMINOTRANSFERASE [3]: 53 u/L | ALBUMIN [3]: 5.07 G/DL | ALKALINE PHOSPHATASE [3]: 360 u/L | ASPARTATE AMINOTRANSFERASE [3]: 106.33 u/L | BLOOD UREA NITROGEN [3]: 14 mg/dL | CARBON DIOXIDE [3]: 27.33 mmol/L | CHLORIDE [3]: 98.67 MEQ/L | CHOLESTEROL [3]: 32.67 mg/dL | CREATINE PHOSPHOKINASE [3]: 366.33 u/L | CREATININE [3]: 0.19 mg/dL | GLUCOSE [3]: 130.67 mg/dL | LACTATE DEHYDROGENASE [3]: 223.33 u/L | LIPASE [3]: 7.67 u/L | PHOSPHORUS [3]: 11.37 mg/dL | POTASSIUM [3]: 5.61 MEQ/L | SODIUM [3]: 143.3 MEQ/L | TOTAL BILIRUBIN [3]: 0.1 mg/dL | TOTAL PROTEIN [3]: 7.6 G/DL | URIC ACID [3]: 2.1 mg/dL | ABSOLUTE BASOPHIL [4]: 0 CELLS/uL | ABSOLUTE EOSINOPHIL [4]: 0 CELLS/uL | ABSOLUTE LYMPHOCYTE [4]: 8002.33 CELLS/uL | ABSOLUTE MONOCYTE [4]: 146.33 CELLS/uL | ABSOLUTE SEGMENTED NEUTROPHIL [4]: 218 CELLS/uL | BASOPHIL [4]: 0% | EOSINOPHIL [4]: 0% | ERYTHROCYTE COUNT [4]: 6.05 x10E6/uL | HEMATOCRIT [4]: 38.6% | HEMOGLOBIN [4]: 15.03 G/DL | LEUKOCYTE COUNT [4]: 8.37 x10E3/uL | LYMPHOCYTE [4]: 95.67% | MEAN CORPUSCULAR HEMOGLOBIN [4]: 24.83 pg | MEAN CORPUSCULAR HEMOGLOBIN CONCENTRATION [4]: 39.03 G/DL | MEAN CORPUSCULAR VOLUME [4]: 63.73 fL | MONOCYTE [4]: 1.67% | NEUTROPHIL [4]: 2.67% | NUCLEATED RED BLOOD CELLS [4]: 0 /100WBC | PLATELET COUNT [4]: 1109.67 x10E3/uL | ALANINE AMINOTRANSFERASE [4]: 61.67 u/L | ALBUMIN [4]: 4.2 G/DL | ALKALINE PHOSPHATASE [4]: 323.67 u/L | ASPARTATE AMINOTRANSFERASE [4]: 81.33 u/L | BLOOD UREA NITROGEN [4]: 11.33 mg/dL | CARBON DIOXIDE [4]: 26.33 mmol/L | CHOLESTEROL [4]: 75.67 mg/dL | CREATINE PHOSPHOKINASE [4]: 295 u/L | CREATININE [4]: 0.23 mg/dL | GLUCOSE [4]: 126 mg/dL | LACTATE DEHYDROGENASE [4]: 285.67 u/L | LIPASE [4]: 12.33 u/L | PHOSPHORUS [4]: 10.4 mg/dL | TOTAL BILIRUBIN [4]: 0.1 mg/dL | TOTAL PROTEIN [4]: 6.03 G/DL | URIC ACID [4]: 0.43 mg/dL | ABSOLUTE BASOPHIL [5]: 0 CELLS/uL | ABSOLUTE EOSINOPHIL [5]: 45.33 CELLS/uL | ABSOLUTE LYMPHOCYTE [5]: 12282.67 CELLS/uL | ABSOLUTE MONOCYTE [5]: 135 CELLS/uL | ABSOLUTE SEGMENTED NEUTROPHIL [5]: 937 CELLS/uL | BASOPHIL [5]: 0% | EOSINOPHIL [5]: 0.33% | ERYTHROCYTE COUNT [5]: 5.99 x10E6/uL | HEMATOCRIT [5]: 37.83% | HEMOGLOBIN [5]: 14.7 G/DL | LEUKOCYTE COUNT [5]: 13.4 x10E3/uL | LYMPHOCYTE [5]: 91.67% | MEAN CORPUSCULAR HEMOGLOBIN [5]: 24.53 pg | MEAN CORPUSCULAR HEMOGLOBIN CONCENTRATION [5]: 38.87 G/DL | MEAN CORPUSCULAR VOLUME [5]: 63.13 fL | MONOCYTE [5]: 1% | NEUTROPHIL [5]: 7% | NUCLEATED RED BLOOD CELLS [5]: 0 /100WBC | PLATELET COUNT [5]: 1305.33 x10E3/uL | ALANINE AMINOTRANSFERASE [5]: 47.67 u/L | ALBUMIN [5]: 4 G/DL | ALKALINE PHOSPHATASE [5]: 486.33 u/L | ASPARTATE AMINOTRANSFERASE [5]: 78.33 u/L | BLOOD UREA NITROGEN [5]: 15.33 mg/dL | CARBON DIOXIDE [5]: 22.67 mmol/L | CHLORIDE [5]: 104.33 MEQ/L | CHOLESTEROL [5]: 33 mg/dL | CREATINE PHOSPHOKINASE [5]: 654 u/L | CREATININE [5]: 0.27 mg/dL | GLUCOSE [5]: 190 mg/dL | LACTATE DEHYDROGENASE [5]: 308 u/L | LIPASE [5]: 9 u/L | PHOSPHORUS [5]: 12.63 mg/dL | POTASSIUM [5]: 4.9 MEQ/L | SODIUM [5]: 143.3 MEQ/L | TOTAL BILIRUBIN [5]: 0.1 mg/dL | TOTAL PROTEIN [5]: 5.73 G/DL | URIC ACID [5]: 1.6 mg/dL
